PubChem BioAssay (NCI)
“And” between values parts separate entries of the source, which are not always exact repeats. Identical values can stand only once.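 How tested: cells in 96-well plates exposed to compound for 48 hours at five concentrations. GI50 = concentration required for 50% inhibition of growth. TGI: total growth inhibition.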

How the values were obtained:
Test in all cases: NCI tumour cell line growth inhibition, 48 h
OVCAR-8 ovarian = tested on: OVCAR-8 ovarian
SNB-19 CNS = tested on: SNB-19 CNS
OVCAR-5 ovarian = tested on: OVCAR-5 ovarian
SK-OV-3 ovarian = tested on: SK-OV-3 ovarian
MALME-3M melanoma = tested on: MALME-3M melanoma
NCI/ADR-RES ovarian = tested on: NCI/ADR-RES ovarian
SF-268 CNS = tested on: SF-268 CNS
SW-620 colon = tested on: SW-620 colon
K-562 leukemia = tested on: K-562 leukemia
HCC-2998 colon = tested on: HCC-2998 colon

Row | SMILES | GI50 (OVCAR-8 ovarian) | TGI (OVCAR-8 ovarian) | GI50 (SNB-19 CNS) | TGI (SNB-19 CNS) | GI50 (OVCAR-5 ovarian) | TGI (OVCAR-5 ovarian) | GI50 (SK-OV-3 ovarian) | TGI (SK-OV-3 ovarian) | GI50 (MALME-3M melanoma) | TGI (MALME-3M melanoma) | GI50 (NCI/ADR-RES ovarian) | TGI (NCI/ADR-RES ovarian) | GI50 (SF-268 CNS) | TGI (SF-268 CNS) | GI50 (SW-620 colon) | TGI (SW-620 colon) | GI50 (K-562 leukemia) | TGI (K-562 leukemia) | GI50 (HCC-2998 colon) | TGI (HCC-2998 colon)
1 | Cc1cc(C)c(NC(=O)c2sc3nc4c(cc3c2N)CN(Cc2ccccc2)CC4)c(C)c1 | 4.72 µM | > 100 µM | 7.21 µM | > 100 µM | 12.5 µM | > 100 µM | 5.35 µM | > 100 µM | 3.44 µM | 42 µM | 1.64 µM | 6.24 µM | 6.93 µM | 64.8 µM | 2.6 µM | 17.1 µM | 0.903 µM | > 100 µM | 5.33 µM | 38.4 µM
2 | CN(CCO)c1ccc(N2Cc3ccccc3OC3=C2C(=O)c2c(O)ccc(O)c2C3=O)cn1 | 0.307 µM | 3.49 µM | 0.465 µM | 1.67 µM | 0.325 µM | 0.997 µM | 2.24 µM | 8.65 µM | 0.0833 µM | 0.245 µM | 0.31 µM | 1.34 µM | 0.274 µM | 0.938 µM | 0.0728 µM | 0.328 µM | 0.0759 µM | > 100 µM | 0.249 µM | 0.608 µM
3 | O=S(=O)(Nc1ccc(F)cc1F)c1ccc(-c2cnc(C3CC3)o2)cc1 | 1.57 µM | > 95.2 µM | 0.638 µM | > 100 µM | 2.71 µM | > 100 µM | 2.52 µM | 61.6 µM | 0.615 µM | 34.2 µM | 0.394 µM | 15 µM | 4.82 µM | > 70.4 µM | 0.395 µM | > 100 µM | 0.211 µM | > 100 µM | 2.39 µM | 27.3 µM
4 | CC[C@H]1CN2CCc3cc(OC)c(OC)cc3[C@@H]2C[C@@H]1C[C@H]1NCCc2c1[nH]c1ccc(O)cc21 | 0.0323 µM and 0.0377 µM |  | 0.0249 µM and 0.0636 µM |  | 0.0246 µM and 0.0401 µM | 0.091 µM and 0.335 µM and 0.379 µM | 0.0348 µM and 0.0711 µM | 0.142 µM and 0.431 µM and 0.529 µM | 0.047 µM and 0.336 µM | 0.113 µM and 0.744 µM and 0.184 µM | 0.0161 µM |  | 0.0315 µM and 0.0253 µM | 0.0931 µM and 0.075 µM and 0.263 µM | 0.0286 µM and 0.0339 µM |  | 0.0263 µM and 0.0353 µM |  | 0.0229 µM and 0.0287 µM | 0.0568 µM and 0.0856 µM and 0.0758 µM
5 | COc1ccc(-c2ccc(-c3ccc(C(=N)N)s3)s2)cc1 | 0.219 µM | 0.5 µM | 0.31 µM | 1.41 µM | 0.197 µM | 0.43 µM | 2.14 µM | 4.3 µM | 0.564 µM | 1.39 µM | 0.416 µM | 1.6 µM | 0.211 µM | 0.451 µM | 0.18 µM | 0.353 µM | 0.184 µM | 0.426 µM | 0.273 µM | 0.699 µM
6 | CCN(Cc1ccccc1C)c1ccc(CO)c(Cl)c1 | 15.8 µM | 48.9 µM | 17.8 µM | 52.8 µM | 0.391 µM | 1.74 µM | 13.7 µM | 31.5 µM | 15.6 µM | 32 µM | 14.5 µM | 43.8 µM | 16.1 µM | 31.8 µM | 3.74 µM | 18.5 µM | 3.1 µM | 13.8 µM | 14.4 µM | 30.6 µM
7 | C1=C\COCc2cc(ccc2OCCN2CCCC2)Nc2nccc(n2)-c2cccc(c2)COC/1 | 3.22 µM | 7.32 µM | 2.68 µM | 7.07 µM | 1.16 µM | 5.38 µM | 3.62 µM | 6.19 µM | 2.13 µM | 5.32 µM | 2.77 µM | 7.35 µM | 2.03 µM | 5.77 µM | 1.48 µM | 6.07 µM | 0.933 µM | 3.65 µM | 2.3 µM | 5.37 µM
8 | O[C@H](c1cc(C(F)(F)F)nc2c(C(F)(F)F)cccc12)[C@@H]1CCCCN1 | 5.11 µM | 14.7 µM | 7.19 µM | 20.9 µM | 7.21 µM | 20.7 µM | 6.11 µM | 17.8 µM | 0.875 µM | 5.73 µM | 3.09 µM | 9.49 µM | 3.54 µM | 15 µM | 2.05 µM | 4.52 µM | 2.87 µM | 9.17 µM | 1.85 µM | 4.13 µM
9 | O=C1NC(=NCCc2cccc(Cl)c2)S/C1=C\c1ccc2ncccc2c1 | > 25 µM | > 25 µM | > 25 µM | > 25 µM | > 25 µM | > 25 µM | > 25 µM | > 25 µM | > 25 µM | > 25 µM | > 25 µM | > 25 µM | > 25 µM | > 25 µM |  |  | 1.17 µM | > 25 µM | > 25 µM | > 25 µM
10 | CCn1sc2ccccc2c1=O |  | 35.8 µM |  | 32.9 µM |  | > 27.5 µM |  | > 54.9 µM |  | 39.6 µM |  | 69.3 µM |  | 34.6 µM |  | > 58.4 µM |  | > 100 µM |  | 34 µM
11 | COc1cc2c3c(n(CCCOC(=O)C(F)(F)F)c(=O)c2cc1OC)-c1cc2c(cc1C3=O)OCO2 |  | 0.664 µM |  | > 100 µM | 0.14 µM | 43.8 µM |  | > 100 µM | 0.159 µM | > 100 µM | < 0.0289 µM | 0.137 µM |  | > 32.2 µM |  | > 100 µM | < 0.0289 µM | > 100 µM | 0.131 µM | 0.539 µM
12 | Cc1[nH]c(/C=C2\C(=O)Nc3ccccc32)c(C)c1CCC(=O)O | 34.7 µM | > 100 µM | 20.9 µM | > 100 µM | 21.5 µM | 81.8 µM and 97.4 µM | 19.5 µM | 59.5 µM and 80.6 µM | 10.7 µM | 36.8 µM and 75.6 µM |  | > 100 µM | 25.1 µM | > 100 µM | 18.8 µM | 52.8 µM and 71.1 µM |  | > 100 µM |  | > 100 µM
13 | O=C(c1ccc(/C=C/c2n[nH]c3ccccc23)cc1)N1CCNCC1 | > 10 µM and 14.1 µM | > 10 µM and 34.4 µM | 4.26 µM and 15.8 µM | > 10 µM and 33.2 µM | > 10 µM and 2.51 µM | > 10 µM and 26.1 µM | > 10 µM and 5.15 µM | > 10 µM and 20.4 µM | 1.52 µM and 1.16 µM | 3.09 µM and 9.38 µM | > 10 µM and 15.8 µM | > 10 µM and 36.7 µM | 8.61 µM and 4.34 µM | > 10 µM and 18.9 µM | 1.96 µM and 1.47 µM | 4.14 µM and 10.8 µM | 1.45 µM and 1.37 µM | 3.58 µM and 21.5 µM | > 10 µM and 12.1 µM | > 10 µM and 34.1 µM
14 | O=C(CSC1CCc2ccccc21)N/N=C/c1ccccc1O (stereo not drawn) | 3.66 µM | > 100 µM | 6.11 µM | > 100 µM | 8.8 µM | > 100 µM | 11.5 µM | > 100 µM | 6.4 µM | 42.3 µM | 3.44 µM | 35 µM | 3.33 µM | > 100 µM | 5.66 µM | 81.4 µM | 4.59 µM | > 100 µM | 5.59 µM | 35.4 µM
15 | N=C(N)c1ccc2nc(-c3cc(CC(=O)N[C@@H](CC(=O)O)C(=O)O)cc(-c4cc(S(N)(=O)=O)ccc4O)c3O)[nH]c2c1 | > 100 µM | > 100 µM | > 100 µM | > 100 µM | > 100 µM | > 100 µM | > 100 µM | > 100 µM | > 100 µM | > 100 µM | > 100 µM | > 100 µM | > 100 µM | > 100 µM | > 100 µM | > 100 µM | > 100 µM | > 100 µM | > 100 µM | > 100 µM
16 | C=C1C(=O)O[C@H]2[C@H]1CC/C(COC(=O)/C=C\C(=O)NCc1ccc(Cn3c(=O)sn(CCCC)c3=O)cc1)=C\CC[C@@]1(C)O[C@@H]21 | 0.828 µM | 3.32 µM | 1.53 µM | 2.93 µM | 1.33 µM | 2.75 µM | 3.33 µM | 8.55 µM | 1.35 µM | 2.71 µM | 1.51 µM | 6.13 µM | 1.39 µM | 2.78 µM | 0.201 µM | 0.443 µM | 0.316 µM | 4.82 µM | 1.64 µM | 3.19 µM
17 | CCN1C(=O)N(CC)C2C1NN=c1s/c(=C3\C(=O)N(CC(C)(C)C)c4ccccc43)c(=O)n12 (stereo not drawn) | 4.67 µM | > 100 µM | 4.05 µM | 16 µM | 6.18 µM | 21.4 µM | 10.7 µM | 74.6 µM | 10 µM | 25.5 µM | 2.61 µM | 13.3 µM | 4.8 µM | 32.1 µM | 4.75 µM | 21.9 µM | 1.65 µM | 20.9 µM | 3.4 µM | 13.8 µM
18 | CSc1ccc2c(c1)C(=O)c1c-2n(CCCBr)c(=O)c2cc([N+](=O)[O-])ccc12 | 27.6 µM | > 100 µM | 3.78 µM | > 100 µM | > 100 µM | > 100 µM | 12.1 µM | > 100 µM | 11.6 µM | > 100 µM | 5.5 µM | > 100 µM | 7.42 µM | > 100 µM | 4.04 µM | > 100 µM | 3.94 µM | 19.3 µM | 74.4 µM | > 100 µM
19 | c1ccc2nc3c(nc2c1)sc1ccccc13 |  |  |  | 42.2 µM |  | > 100 µM |  | 29.5 µM |  | > 100 µM |  | > 100 µM |  | 46.1 µM |  | > 100 µM |  | > 100 µM |  | > 100 µM
20 | C=C1C(=O)OC2CC(C)C3(O)CCC(=O)C3(C)CC12 (stereo not drawn) |  | 70.3 µM |  | 61.4 µM |  | 74.3 µM |  | > 100 µM |  | 69.5 µM |  | > 100 µM |  | 64.5 µM |  | > 100 µM |  |  |  | 50 µM
